Data reported in US9539236B2, “Pharmaceutical composition for preventing or treating cancer” (Medicinal Bioconvergence Research Center, priority 2013, dated 2017).

What was measured:
Assay type in all cases: cell-based
[1] = system: AIMP2-DX2 mRNA; assay: RT-PCR of AIMP2-DX2 mRNA level in H460 cells treated with C11; conditions: different concentrations of C11, RT-PCR, FIG. 1
Experimental: (§1) The present inventors conducted western blotting and RT-PCR using AIMP2 antibody and AIMP2-DX2 antibody (purchased from Neomics (Korea)) to verify the effect of the compound of chemical formula 1 on AIMP2-DX2 activity.
H460 cells were treated with C11 with different concentrations, and then total-RNA was isolated according to the protocol of the manufacturer (Qiagen). The cells were collected, and mixed with 350 μl of a lysis buffer, which was then homogenized using a homogenizer or a syringe. After 350 μl of 70% ethanol was added, the lysate was shook above and below several times, and loaded on the column, followed by centrifuge at 13,000 RPM for 15 seconds. The column was washed twice with a washing buffer, and then RNA was eluted with 40 μl of RNase-free DW.
For reverse transcription, 1 μg of the isolated RNA was used as AIMP2-specific primers (SEQ ID NO: 2 and SEQ ID NO: 3) and DX2-specific primers (SEQ ID NO: 4 and SEQ ID NO: 5). After the reverse transcription, the product was diluted with 3-fold DW, and then 1 μl was used for 30 μl of PCR reaction including 0.5 μl dNTP (each 2.5 mM), 0.5 μl of the AIMP2 specific primer set (SEQ ID NO: 2 and SEQ ID NO: 3) and DX2 specific primers (SEQ ID NO: 4 and SEQ ID NO: 5) (each 10 pM), 1.5 μl of DMSO, and 0.1 μl of Taq polymerase (5 U/μl).

[2] = molecular target: T1, AIMP2-DX2 (Homo sapiens, UniProt Q13155); assay: Western blotting of AIMP2-DX2 protein level in H460 cells; conditions: FIG. 2
T1 construct: the protein was extracted from the cells using a RIPA buffer containing protease; endogenous in cells; host or cells: H460
T1 sequence (Q13155 1-251 isoform Q13155-2): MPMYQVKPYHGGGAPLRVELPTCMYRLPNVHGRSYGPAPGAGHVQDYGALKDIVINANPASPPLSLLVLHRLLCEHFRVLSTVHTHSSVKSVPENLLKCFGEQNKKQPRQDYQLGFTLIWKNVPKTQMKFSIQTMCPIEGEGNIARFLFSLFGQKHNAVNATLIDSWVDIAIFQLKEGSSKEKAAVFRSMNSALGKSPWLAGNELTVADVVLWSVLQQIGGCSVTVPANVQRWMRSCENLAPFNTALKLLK
Experimental: as §1
(§2) A western blotting test was conducted to investigate the effect of C11 on the AIMP2-DX2 protein level.
(§3) H460 cells were treated with the compound, C11, for a predetermined period of time, and the protein was extracted from the cells using a RIPA buffer containing protease. The protein was isolated using 10 to 12% SDS-PAGE, and then immunoblotting was conducted using an ECL system as a specific antibody.

[3] = system: AIMP2; assay: Western blotting of AIMP2 protein expression in H460 cells; conditions: FIG. 2
Experimental: as §1, §2, §3

[4] = system: lung cancer cell line NCI-H460; assay: MTT assay, cytotoxicity on lung cancer cells (H460); conditions: NCI-H460, serum free RPMI, 0.04 uM, 0.4 uM, 4 uM and 40 uM, 48 hours, FIG. 3
Experimental: A lung cancer cell line NCI-H460 was cultured in an RPMI medium (HyQ RPMI-1640, Hyclone) containing 10% fetal bovine serum and 1% penicillin/streptomycin for 48 hours, and then transferred to a 96-well plate. After 12 hours, the medium was exchanged with the serum free RPMI medium, and then was treated with the compound of chemical formula 1 with 0.04 uM, 0.4 uM, 4 uM, and 40 uM. After 48 hours, MTT assay was conducted.

[5] = system: WI-26 human diploid fibroblast cell line from embryonic lung tissue; assay: MTT assay, cytotoxicity on normal cell line WI-26; conditions: WI-26 cells, compared with a control, FIG. 4
Experimental: In order to evaluate cytotoxicity of C11 on a normal cell line, WI-26, which is a human diploid fibroblast cell line from embryonic lung tissue, was treated with C11, and then cell viability was measured by MTT assay and compared with a control.

Cc1ccc(S(=O)(=O)N[C@@H](CC(C)C)C(=O)N2CCOCCOCCOCC2)cc1 [C11, 1,4,7-Trioxa-10-azacyclododecane, 10-[4-methyl-2-[[(4-methylphenyl)sulfonyl]amino]-1-oxopentyl]]
effect on the mRNA level of AIMP2-DX2 [1]: no effect
effect on the AIMP2-DX2 protein level [2]: reduced the AIMP2-DX2 protein level in a concentration dependent manner
effect on the AIMP2 protein expression [3]: no effect
lung cancer cell line viability (MTT) [4]: killed by the compound, C11, in a concentration dependent manner
cytotoxicity on normal cells (cell viability, MTT) [5]: cytotoxicity was not observed
